From patent US8652836B2, “Defective ribosomal products in blebs (DRibbles) and methods of use to stimulate an immune response” (Providence Health System, priority 2005, dated 2014)
Square brackets hold non-standard residues; d marks the D form. Peptide text beside a SMILES is read from it. * marks the point of attachment. Nle = CCCC[C@H](N)C(=O)O; Cbz = O=C(OCc1ccccc1)*

Key:
[1] = tested on: human 293T tumor cells expressing V-GFP-TfR-OVA fusion; experiment: Western blot of fusion protein with anti-GFP antibody; type: cell-based; details: for full-length and short fragments of fusion proteins: 10 mM 3-MA, 1 μM Velcade, 10 mM NH4Cl, compared to untreated control cells
Method: (§1) The autophagy inhibitor […] (3-MA) and the autophagy inducer rapamycin were used to modulate autophagy and observe their effect on human 293T tumor cells expressing V-GFP-TfR-OVA fusion (a peptide containing mutated ubiquitin, GFP (green fluorescent protein), the transmembrane domain of transferrin receptor and chicken ovalbumin). In addition 10 mM NH4Cl was used to inhibit lysosome mediated protein degradation. Cells expressing V-GFP-TfR-OVA were either untreated, treated with 10 mM 3-MA for 24 hours, treated with 10 mM 3-MA and 1 μM Velcade for 24 hours, 50 nM rapamycin for 24 hours, 50 nM rapamycin and 1 μM Velcade for 24 hours, 10 mM NH4Cl for 24 hours, or with 1 μM Velcade and 10 mM NH4Cl for 24 hours. Cell lysates were prepared by resuspending pelleted cells in SDS containing sample lysis buffer and subjected to western blot analysis with anti-GFP antibody.

[2] = tested on: 293T tumor cells expressing V-GFP-TfR-OVA; experiment: In vitro cross-presentation of treated tumor cells by DC to OT-I T cells (CFSE dilution); type: cell-based, human; details: tumor cells treated as in Example 2, irradiated; FIG. 3
Method: as §1
(§2) 293T tumor cells expressing V-GFP-TfR-OVA were treated as described in Example 2, and used as the source of antigens for cross-presentation in vitro after irradiation (15,000 rad). One million tumor cells were incubated with two million DC for 6 hours before the addition of CFSE labeled naïve T cells from OT-I transgenic mice that recognize peptides derived from OVA protein. The OT-I division as indicated by dilution of CFSE label was used as the readout.

293T tumor cells = experiment: Fluorescence microscopy of GFP-OVA / GFP-LC3 transfected cells; type: cell-based, human; details: 1 μM
Method: 293T tumor cells were transfected with plasmids encoding Ub-M-GFP-OVA, GFP-LC3 fusion protein, or GFP-LC3 and tdTomato-Ub proteins. Transfected cells were treated with 1 μM Velcade 24 hours later. GFP-OVA or GFP-LC3 fusion proteins were used to visualize the antigens or autophagy membrane in the DRibbles using fluorescence microscopy. Co-tranfection of GFP-LC3 and tdTomato-Ub fusion plasmids was used to visualize accumulation of ubiquitinated DRiPs inside LC3 decorated DRibbles.

[3] = tested on: 293T cell lines expressing GFP-OVA fusion proteins; experiment: Western blot of DRibble lysates; type: cell-based, human
Method: Lysates (10 μg) were prepared from DRibbles generated from 293T cell lines expressing different versions of GFP-OVA fusion proteins after Velcade treatment. The lysates were probed with antibodies against GFP, LC3, calrecticulin, HSP90α (cytosolic), and ubiquitin.

[4] = tested on: 293T cells expressing V-GFP-TfR-OVA fusion protein; experiment: Cross-presentation of HSP90 inhibitor treated cells; type: cell-based, human; details: Velcade added to 17-AAD treated cells
Method: as §2
Cross-presentation is analyzed as described in Example 5.

[5] = tested on: 293T cells expressing V-GFP-TfR-OVA fusion protein; experiment: Western blot of fusion protein after HSP90 inhibitor and Velcade; type: cell-based, human; details: 1 μM Velcade 6 hours; 10 μM 17-AAD 16 hour
LC3 = experiment: Western blot analysis of LC-3 (autophagy marker); type: cell-based, human; details: 1 μM overnight, 293T cells
Method: To confirm whether Velcade induced autophagy, Western blot analysis of LC-3 was performed. LC3 is an autophagy marker; it converts from its LC3-I-nonlipidated form to the PE-conjugated form LC3-II. 293T were treated with 1 μM Velcade overnight and total cell lysates were subjected to Western blot analysis with anti-LC3 polyclonal antibody.

[6] = oral administration; cited from earlier work
[7] = under refrigeration; cited from earlier work
RMA tumor cells = experiment: Priming of gag-specific CD8 T cells by RMA tumor cells, intracellular IFN-γ; type: in vivo, mice; details: RMA cells treated 5 μM 24 hours
Method: Seven days later, spleen cells were restimulated with either irrelevant D^b binding peptide or the dominant epitope of gag in the presence of blocker of ER/Golgi (brefeldin A) for 6 hours. The percentage of CD8 T cells produced intracellular IFN-γ was then determined by intracellular staining and flow cytometry analysis with antibodies against CD3, CD8, and IFN-γ.

F10 melanoma cells = experiment: Secretion of DRibbles by tumor cells treated with proteasome inhibitor (microscopy); type: cell-based, mouse; details: 5 μg/ml, 24 hours; FIG. 1A
Method: To prepare tumor-derived DRibbles, one T-150 flask of cultured tumor cells at about 80% confluence (about 30 million cells per flask) were treated for 24 hours with reversible proteasome inhibitor MG132 (5 μg/ml) or ALLN (5 μg/ml) to block proteasome-mediated degradation of ubiquitinated proteins. […] Culture supernatant was collected in a 50 ml conical tube 48 hours later, and whole tumor cells and large cell debris removed by a low speed centrifugation (250 g for 10 minutes) (FIG. 1B). The resulting supernatant was further centrifuged at a high speed (10,000 g for 15 minutes) to pellet DRibbles. The pellets (containing the DRibbles, see FIG. 1C) were washed once by re-suspending in PBS (20 ml) and pelleting at high speed as above. The washed pellets were resuspended in 300 μl PBS (10 μl DRibble=1 million cells) and snap frozen in liquid nitrogen and kept at −80° C. in small aliquots until use.

Cn1cnc(=N)c2ncn([C@@H]3O[C@H](CO)[C@@H](O)[C@H]3O)c21 [3-MA, 3-methyladenosine]
full-length and short fragments of fusion proteins ([1]; 24 hours): both full-length and short fragments of fusion proteins were increased
cross-presentation (OT-I division, CFSE dilution) [2]: severely curtailed

CC(C)C[C@H](NC(=O)[C@H](Cc1ccccc1)NC(=O)c1cnccn1)B(O)O [Velcade, N-pyrazinecarbonyl-L-phenylalanine-L-leucineboronic acid]
formation of punctate structures (293T tumor cells): led to formation of cell-associated punctate positive for GFP-OVA or GFP-LC3
GFP-OVA fusion protein in DRibbles [3]: resulted in large amount GFP-OVA fusion protein in the DRibbles
DRiPs and cross-presentation [4]: rescued DRiPs but not cross-presentation
short-fragments of GFP-TfR-OVA fusion proteins [5]: dramatically increased
amount of short fragments ([1]; 1 μM Velcade in the presence of 50 nM rapamycin, 24 hours): slightly increased the amount of short fragments
autophagy induction (LC3-I and LC3-II) (LC3): induced autophagy in 293T cells

O.O=P1(N(CCCl)CCCl)NCCCO1 (stereo not shown) [Cyclophosphamide, 2-[bis(2-chloroethyl)amino]tetrahydro-2H-1,3,2 oxazaphosphorine 2-oxide monohydrate]
bioavailability [6]: greater than 75%
stability of reconstituted solution [7]: six

Cl.N [NH4Cl]
full-length and short fragments of fusion proteins ([1]; 24 hours): even greater stabilizing effect of shorter fragments
antigen / protein level detected by Western blot ([1]; as restated with the cross-presentation results): increased protein level
cross-presentation (OT-I division, CFSE dilution) [2]: moderate increase of cross-presentation

CC(C)C[C@@H](C=O)NC(=O)[C@H](CC(C)C)NC(=O)[C@H](CC(C)C)NC(=O)OCc1ccccc1 [MG-132, carbobenzyloxy-L-leucyl-L-leucyl-L-leucinal] (Cbz-Leu-Leu-Leu-aldehyde)
percentage of IFN-γ-producing CD8 T cells, background (RMA tumor cells; background): 0.29%
percentage of IFN-γ-producing CD8 T cells (RMA tumor cells; spleen cells seven days later restimulated with dominant epitope of gag): 1.74%

CCCC[C@@H](C=O)NC(=O)[C@H](CC(C)C)NC(=O)[C@H](CC(C)C)NC(C)=O [ALLN, N-Acetyl-Leu-Leu-norleucinal] (Ac-Leu-Leu-[Nle]-aldehyde)
formation of prenuclear vacuoles and secretion of DRibbles (F10 melanoma cells): induced formation of prenuclear vacuoles and secretion of DRiPs containing blebs (DRibbles)
